Experimental data from patent US9593156B2 (priority 2012, dated 2017).
Several values for one entry are separate records, joined by “and”; a condition that tells them apart may be missing. Identical values can stand only once. Like-named read-outs stand apart in the source and are kept apart here. Ends that are not written are not given here.

Columns and labels:
[1] = biological target: T1, type A insulin receptor (IR-A) (Homo sapiens, UniProt P06213); test: Receptor kinase activity (phosphorylation) assay, type A insulin receptor; assay type: cell-based; settings: for % Insulin Activity IR-A: Table 12
T1 construct: expressed in transfected cells; host or cells: HEK293

[2] = biological target: T2, type B insulin receptor (IR-B) (Homo sapiens, UniProt P06213); test: Receptor kinase activity (phosphorylation) assay, type B insulin receptor; assay type: cell-based; settings: for % Insulin Activity IR-B: Table 12
T2 construct: expressed in transfected cells; host or cells: HEK293

[3] = biological target: T3, IGF-1 receptor (Homo sapiens, UniProt P08069); test: Receptor kinase activity (phosphorylation) assay, IGF-1 receptor; assay type: cell-based; design: expressed in transfected cells; host or cells: HEK293; settings: for % Insulin Activity IGF-1 R: Table 12
[4] = biological target: T4, insulin receptor (Homo sapiens, UniProt P06213); test: Insulin receptor phosphorylation assay in receptor transfected HEK293 cells; assay type: cell-based; design: expressed in transfected cells; host or cells: HEK293; settings: Table 10; Insulin Receptor
[5] = biological target: T4, insulin receptor; test: Insulin receptor competition binding assay (scintillation proximity); design: expressed in transfected cells; plasma membrane fragments
[6] = biological target: T3, IGF-1 receptor; test: IGF-1 receptor competition binding assay (scintillation proximity); design: expressed in transfected cells; plasma membrane fragments; settings: Table 9; for % IGF-1 (in test): IGF-1 Receptor; for Ratio: IGF-1 receptor versus insulin receptor
[7] = biological target: T3, IGF-1 receptor; test: IGF-1 receptor phosphorylation assay in receptor transfected HEK293 cells; assay type: cell-based; design: expressed in transfected cells; host or cells: HEK293; settings: Table 10; IGF-1 Receptor

B^1(H5,10Y16L17A24)25-C^1-A^1(H8N18,N21) [Ala,B24]
IR-A [1]: 0.1% | IR-B [2]: 0.4% | IGF-1 R [3]: 0.3%

CC[C@H](C)[C@H](NC(=O)CN)C(=O)N[C@H](C(=O)N[C@@H](CC(=O)O)C(=O)N[C@@H](CCC(=O)O)C(=O)N[C@H]1CSSC[C@@H]2NC(=O)[C@H](CO)NC(=O)[C@H](CCCNC(=N)N)NC(=O)[C@H](Cc3ccccc3)NC(=O)[C@H](CSSC[C@H](NC(=O)[C@H](CC(C)C)NC(=O)[C@@H](NC(=O)[C@H](CCC(=O)O)NC(=O)[C@@H]3CCCN3C(=O)CN)[C@@H](C)O)C(=O)NCC(=O)N[C@@H](C)C(=O)N[C@@H](CCC(=O)O)C(=O)N[C@@H](CC(C)C)C(=O)N[C@@H](C(C)C)C(=O)N[C@@H](CC(=O)O)C(=O)N[C@@H](C)C(=O)N[C@@H](CC(C)C)C(=O)N[C@@H](Cc3ccc(O)cc3)C(=O)N[C@@H](CC(C)C)C(=O)N[C@@H](C(C)C)C(=O)N[C@H](C(=O)NCC(=O)N[C@@H](CC(=O)O)C(=O)N[C@@H](CCCNC(=N)N)C(=O)NCC(=O)N[C@@H](Cc3ccccc3)C(=O)N[C@@H](Cc3ccc(O)cc3)C(=O)N[C@@H](Cc3ccccc3)C(=O)N[C@@H](CC(N)=O)C(=O)N[C@@H](CCCCN)C(=O)N3CCC[C@H]3C(=O)N[C@H](C(=O)N[C@@H](CCC(=O)O)C(=O)N[C@@H](CCC(=O)O)C(=O)O)[C@@H](C)O)CSSC[C@@H](C(=O)N[C@@H](C)C(N)=O)NC(=O)[C@H](Cc3ccc(O)cc3)NC(=O)[C@H](CCSC)NC(=O)[C@H](CCC(=O)O)NC(=O)[C@H](CC(C)C)NC(=O)[C@H](CCCNC(=N)N)NC(=O)[C@H](CCCNC(=N)N)NC(=O)[C@H](CC(C)C)NC(=O)[C@H](CC(=O)O)NC2=O)NC1=O)C(C)C [IGF-1 A:B(E10 Y16L17)-E31E3 2B-COOH]
% Insulin [4]: 18.1% and 31.7% | % insulin (in test) ([5]; Table 9, Insulin Receptor): 36.5% | % native insulin activity (0.6 nM) ([5]; Table 9, Insulin Receptor): 50.0% | % IGF-1 (in test) [6]: 3.0% | Ratio [6]: 14.3

B2, C8-PEG10K di-PEGylated MIU-35 (GPEHLCGAELVDALYLVCGDRGFYGYGSSSRK(PEG 10 kDa)APQTGIVDECCFRSCDLRRLENYCN; not fully specified (N-terminus); ends and bridges not checked; also: PEG10K at B2) [MIU-67]
% Insulin Activity IR-A [1]: 0.2% | % Insulin Activity IR-B [2]: 0.1% | % Insulin Activity IGF-1 R [3]: <0.1%

CC[C@H](C)[C@H](NC(=O)CN)C(=O)N[C@H](C(=O)N[C@@H](CC(=O)O)C(=O)N[C@@H](CCC(=O)O)C(=O)N[C@H]1CSSC[C@@H]2NC(=O)[C@H](CO)NC(=O)[C@H](CCCNC(=N)N)NC(=O)[C@H](Cc3ccccc3)NC(=O)[C@H](CSSC[C@H](NC(=O)[C@H](CC(C)C)NC(=O)[C@H](Cc3c[nH]cn3)NC(=O)[C@H](CCC(=O)O)NC(=O)[C@@H]3CCCN3C(=O)CN)C(=O)NCC(=O)N[C@@H](C)C(=O)N[C@@H](CC(=O)O)C(=O)N[C@@H](CC(C)C)C(=O)N[C@@H](C(C)C)C(=O)N[C@@H](CC(=O)O)C(=O)N[C@@H](C)C(=O)N[C@@H](CC(C)C)C(=O)N[C@@H](Cc3ccc(O)cc3)C(=O)N[C@@H](CC(C)C)C(=O)N[C@@H](C(C)C)C(=O)N[C@H](C(=O)NCC(=O)N[C@@H](CC(=O)O)C(=O)N[C@@H](CCCNC(=N)N)C(=O)NCC(=O)N[C@@H](Cc3ccccc3)C(=O)N[C@@H](Cc3ccc(O)cc3)C(N)=O)CSSC[C@@H](C(=O)N[C@@H](C)C(N)=O)NC(=O)[C@H](Cc3ccc(O)cc3)NC(=O)[C@H](CCSC)NC(=O)[C@H](CCC(=O)O)NC(=O)[C@H](CC(C)C)NC(=O)[C@H](CCCNC(=N)N)NC(=O)[C@H](CCCNC(=N)N)NC(=O)[C@H](CC(C)C)NC(=O)[C@H](CC(=O)O)NC2=O)NC1=O)C(C)C [IGF-1 A:B (H5D10Y16L17) DPI]
% IGF [7]: 7.1% | % insulin (in test) ([5]; Table 9, Insulin Receptor): 479.0% | % IGF-1 (in test) [6]: 11.2% | Ratio [6]: 29.1

B2, A14-PEG10K di-PEGylated MIU-35 (GPEHLCGAELVDALYLVCGDRGFYGYGSSSRKAPQTGIVDECCFRSCDLK(PEG 10 kDa)RLENYCN; not fully specified (N-terminus); ends and bridges not checked; also: PEG10K at B2) [MIU-69]
% Insulin Activity IR-A [1]: 1.0% | % Insulin Activity IR-B [2]: 0.5% | % Insulin Activity IGF-1 R [3]: <0.1%

B^1(H5,10Y16L17R29)30-C^1des9-12-A^1(H8,N18,21) (GPEHLCGAHLVDALYLVCGDRGFYFNKRTGYGSSSRRGIVDECCHRSCDLRRLENYCN) [MIU-43]
IR-A ([1]; Table 14): 97.5% | IR-B ([2]; Table 14): 16.7% | IGF-1 R ([3]; Table 14): 14.2%

GE5W-B^1(A5H10Y16L17)25-C^1-A^1(H8N18N21) [GE5W-Ala,B5]
IR-A [1]: 8.6% | IR-B [2]: 2.3% | IGF-1 R [3]: 0.3%

B^1(A5H10Y16L17)25-C^1-A^1(H8N18N21) [Ala,B5]
IR-B [2]: 5.7% | IGF-1 R [3]: 2.5%

CC[C@H](C)[C@H](NC(=O)CN)C(=O)N[C@H](C(=O)N[C@@H](CC(=O)O)C(=O)N[C@@H](CCC(=O)O)C(=O)N[C@H]1CSSC[C@@H]2NC(=O)[C@H](CO)NC(=O)[C@H](CCCNC(=N)N)NC(=O)[C@H](Cc3ccccc3)NC(=O)[C@H](CSSC[C@H](NC(=O)[C@H](CC(C)C)NC(=O)[C@H](Cc3c[nH]cn3)NC(=O)[C@H](CCC(=O)O)NC(=O)[C@@H]3CCCN3C(=O)CN)C(=O)NCC(=O)N[C@@H](C)C(=O)N[C@@H](CC(=O)O)C(=O)N[C@@H](CC(C)C)C(=O)N[C@@H](C(C)C)C(=O)N[C@@H](CC(=O)O)C(=O)N[C@@H](C)C(=O)N[C@@H](CC(C)C)C(=O)N[C@@H](Cc3ccc(O)cc3)C(=O)N[C@@H](CC(C)C)C(=O)N[C@@H](C(C)C)C(=O)N[C@H](C(=O)NCC(=O)N[C@@H](CC(=O)O)C(=O)N[C@@H](CCCNC(=N)N)C(=O)NCC(=O)N[C@@H](Cc3ccccc3)C(=O)N[C@@H](Cc3ccc(O)cc3)C(N)=O)CSSC[C@@H](C(=O)N[C@@H](C)C(N)=O)NC(=O)[C@H](Cc3ccc(O)cc3)NC(=O)[C@H](CC[S+](C)[O-])NC(=O)[C@H](CCC(=O)O)NC(=O)[C@H](CC(C)C)NC(=O)[C@H](CCCNC(=N)N)NC(=O)[C@H](CCCNC(=N)N)NC(=O)[C@H](CC(C)C)NC(=O)[C@H](CC(=O)O)NC2=O)NC1=O)C(C)C (some centres unmarked) [IGF-1 A:B(H5D10Y16L17) (S═O) DPI]
% insulin (in test) ([5]; Table 9, Insulin Receptor): 316.0%

CC[C@H](C)[C@H](NC(=O)CN)C(=O)N[C@H](C(=O)N[C@@H](CC(=O)O)C(=O)N[C@@H](CCC(=O)O)C(=O)N[C@H]1CSSC[C@@H]2NC(=O)[C@H](CO)NC(=O)[C@H](C)NC(=O)[C@H](Cc3c[nH]cn3)NC(=O)[C@H](CSSC[C@H](NC(=O)[C@H](CC(C)C)NC(=O)[C@H](Cc3c[nH]cn3)NC(=O)[C@H](CCC(=O)O)NC(=O)[C@@H]3CCCN3C(=O)CN)C(=O)NCC(=O)N[C@@H](C)C(=O)N[C@@H](CC(=O)O)C(=O)N[C@@H](CC(C)C)C(=O)N[C@@H](C(C)C)C(=O)N[C@@H](CC(=O)O)C(=O)N[C@@H](C)C(=O)N[C@@H](CC(C)C)C(=O)N[C@@H](Cc3ccc(O)cc3)C(=O)N[C@@H](CC(C)C)C(=O)N[C@@H](C(C)C)C(=O)N[C@H](C(=O)NCC(=O)N[C@@H](CC(=O)O)C(=O)N[C@@H](C)C(=O)NCC(=O)N[C@@H](Cc3ccccc3)C(=O)N[C@@H](Cc3ccc(O)cc3)C(N)=O)CSSC[C@@H](C(=O)N[C@@H](CC(N)=O)C(=O)O)NC(=O)[C@H](Cc3ccc(O)cc3)NC(=O)[C@H](CC[S+](C)[O-])NC(=O)[C@H](CCC(=O)O)NC(=O)[C@H](CC(C)C)NC(=O)[C@H](CCCNC(=N)N)NC(=O)[C@H](CCCNC(=N)N)NC(=O)[C@H](CC(C)C)NC(=O)[C@H](CC(=O)O)NC2=O)NC1=O)C(C)C (some centres unmarked)
% insulin (in test) [5]: 400.7%

CC[C@H](C)[C@H](NC(=O)CNC(=O)[C@@H]1CCCN1C(=O)[C@H](C)N)C(=O)N[C@H](C(=O)N[C@@H](CC(=O)O)C(=O)N[C@@H](CCC(=O)O)C(=O)N[C@H]1CSSC[C@@H]2NC(=O)[C@H](CO)NC(=O)[C@H](CCCNC(=N)N)NC(=O)[C@H](Cc3ccccc3)NC(=O)[C@H](CSSC[C@H](NC(=O)[C@H](CC(C)C)NC(=O)[C@@H](NC(=O)[C@H](CCC(=O)O)NC(=O)[C@@H]3CCCN3C(=O)CN)[C@@H](C)O)C(=O)NCC(=O)N[C@@H](C)C(=O)N[C@@H](CCC(=O)O)C(=O)N[C@@H](CC(C)C)C(=O)N[C@@H](C(C)C)C(=O)N[C@@H](CC(=O)O)C(=O)N[C@@H](C)C(=O)N[C@@H](CC(C)C)C(=O)N[C@@H](Cc3ccc(O)cc3)C(=O)N[C@@H](CC(C)C)C(=O)N[C@@H](C(C)C)C(=O)N[C@H](C(=O)NCC(=O)N[C@@H](CC(=O)O)C(=O)N[C@@H](CCCNC(=N)N)C(=O)NCC(=O)N[C@@H](Cc3ccccc3)C(=O)N[C@@H](Cc3ccc(O)cc3)C(=O)N[C@@H](Cc3ccccc3)C(=O)N[C@@H](CC(N)=O)C(=O)N[C@@H](CCCCN)C(=O)N3CCC[C@H]3C(=O)N[C@H](C(N)=O)[C@@H](C)O)CSSC[C@@H](C(=O)N[C@@H](C)C(N)=O)NC(=O)[C@H](Cc3ccc(O)cc3)NC(=O)[C@H](CCSC)NC(=O)[C@H](CCC(=O)O)NC(=O)[C@H](CC(C)C)NC(=O)[C@H](CCCNC(=N)N)NC(=O)[C@H](CCCNC(=N)N)NC(=O)[C@H](CC(C)C)NC(=O)[C@H](CC(=O)O)NC2=O)NC1=O)C(C)C [IGF1 (Y^B16L^B17) (AlaPro)^A-1,0]
% of Insulin Activity ([5]; Table 8): 37.12%

B2, B22-PEG10K di-PEGylated MIU-35 (GPEHLCGAELVDALYLVCGDK(PEG 10 kDa)GFYGYGSSSRKAPQTGIVDECCFRSCDLRRLENYCN; not fully specified (N-terminus); ends and bridges not checked; also: PEG10K at B2) [MIU-68]
% Insulin Activity IR-A [1]: 0.4% | % Insulin Activity IR-B [2]: 0.1% | % Insulin Activity IGF-1 R [3]: <0.1%
